“Also recorded” adds a separate entry of the source. Where no end group is shown, it is not given here.
Legend:
[1] = molecular target: T1, Porcine cholesterol esterase (Sus scrofa, UniProt A0A286ZKB1); test: CE inhibitory activity assay (spectrophotometry); type: biochemical; settings: for comparative inhibitory activity on CE (in words): authors' ranking, for KQ7 partly integrating molecular dynamics; for concentration dependence of CE inhibition rate: 0.2–1.0 mg/mL; for CE inhibition rate vs control group: all concentrations, p < 0.05
T1 sequence (A0A286ZKB1 1-682): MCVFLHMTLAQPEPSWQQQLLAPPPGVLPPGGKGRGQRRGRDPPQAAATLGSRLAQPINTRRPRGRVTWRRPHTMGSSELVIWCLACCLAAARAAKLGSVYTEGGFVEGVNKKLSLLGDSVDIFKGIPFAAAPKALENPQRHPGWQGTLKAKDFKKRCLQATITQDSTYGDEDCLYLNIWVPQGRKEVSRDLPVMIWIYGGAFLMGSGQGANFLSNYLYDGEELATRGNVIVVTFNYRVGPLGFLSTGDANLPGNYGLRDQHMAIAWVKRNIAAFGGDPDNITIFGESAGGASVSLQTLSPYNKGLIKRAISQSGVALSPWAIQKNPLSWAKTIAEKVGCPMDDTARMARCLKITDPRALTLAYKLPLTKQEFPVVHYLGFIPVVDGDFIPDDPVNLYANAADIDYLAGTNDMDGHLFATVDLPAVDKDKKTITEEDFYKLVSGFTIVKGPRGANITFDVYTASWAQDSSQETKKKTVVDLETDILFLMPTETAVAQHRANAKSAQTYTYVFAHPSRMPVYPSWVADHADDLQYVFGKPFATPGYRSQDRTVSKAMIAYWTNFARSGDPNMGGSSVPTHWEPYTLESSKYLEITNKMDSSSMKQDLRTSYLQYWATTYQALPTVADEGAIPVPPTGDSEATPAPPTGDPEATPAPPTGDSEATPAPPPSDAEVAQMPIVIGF
Protocol: (§1) Porcine cholesterol esterase and the ELISA kit were provided by Jiangsu JINGMEI Biotechnology Co., Ltd. (Yancheng, China).
(§2) In the formula, ODs: is the absorbance value of the sample group; ODsb: is the absorbance value of the sample blank group; ODc: is the absorbance value of the control group; and ODb: is the absorbance value of the blank group.
(§3) Each experimental sample was tested in triplicate, and the data were processed using IBM SPSS Statistics 26 software. Figures were generated using Origin 2018 and GraphPad Prism 8.0.2 software.

[2] = molecular target: T1, Porcine cholesterol esterase; test: CE inhibitory activity after simulated gastrointestinal digestion (pepsin, trypsin); type: biochemical; settings: for CE inhibition after digestion (in words): after simulated gastrointestinal digestion; for change of CE inhibition on digestion (in words): simulated gastrointestinal digestion, KQ7, QP13, VN10 at 60 min, RK7 within 120 min
Description: as §1, §2
We dissolved the synthesized peptide aqueous solution in pepsin (enzyme: substrate 1:50 w/w) and adjusted the pH to 2 using 1 mol/L HCl. Then, we hydrolyzed this at 37 °C for 90 min, then adjusted the pH to 7.5 with 1 mol/L NaOH solution and added trypsin (enzyme: substrate 1:50 w/w). Next, we hydrolyzed this at 37 °C for 180 min in a constant temperature water bath. Subsequently, we inactivated this by boiling it in a 95 °C water bath for 10 min. Finally, we took samples every 30 min and stored each sample at −20 °C for later analysis.
The determination of CE activity refers to Section 2.3.5.
as §3

[3] = peptide isolated from soybean glycinin; ref [26]; cited from earlier work
Description: These carbon–hydrogen bonds may have stabilized the QP13–CE complex to some extent, complementing the hydrogen bonds. It formed π–Alkyl bonds with Ile426, Phe119, Ala117, Leu69, and Leu124 through hydrophobic interactions. QP13 also interacted with Asp434, Lys445, Asn118, Met424, Ile426, Tyr75, Thr68, Tyr427, Tyr123, Leu69, Gln440, Asn112, Phe119, and Arg63 through van der Waals f ...

Row | Compound | comparative inhibitory activity on CE (in words) [1] | IC50 ([1]; from inhibition curve, spectrophotometry, triplicate) | CE inhibition after digestion (in words) [2] | change of CE inhibition on digestion (in words) [2] | concentration dependence of CE inhibition rate [1] | CE inhibition rate vs control group [1] | cholesterol effect [3]
1 | CC(C)c1c(C(=O)Nc2ccccc2)c(-c2ccccc2)c(-c2ccc(F)cc2)n1CC[C@@H](O)C[C@@H](O)CC(=O)O [Atorvastatin, reference compound] | strongest inhibitory effect on CE | 854 µM |  |  |  |  | 
2 | KVLPVPQ [KQ7, Lys-Val-Leu-Pro-Val-Pro-Gln] | highest inhibitory activity on CE; also recorded: higher inhibitory activity against CE compared to RK7; also recorded: highest inhibitory activity against CE |  | effective in inhibiting CE after simulated gastrointestinal digestion | significant increase in the inhibitory activity; also recorded: significant increase in CE inhibition activity at 60 min during digestion (p < 0.05); also recorded: significantly enhanced after simulated gastrointestinal digestion | increased with the increase of peptide mass concentration | significantly higher than those of the control group at all concentrations (p < 0.05) | 
3 | Leu–Pro–Tyr–Pro |  |  |  |  |  |  | demonstrated low cholesterol effects
4 | QEPVLGPVRGPFP [QP13] |  |  | effective in inhibiting CE after simulated gastrointestinal digestion | significant increases in inhibition activity (p < 0.05) | increased with the increase of peptide mass concentration | significantly higher than those of the control group at all concentrations (p < 0.05) | 
5 | RPKHPIK [RK7, Arg-Pro-Lys-His-Pro-Ile-Lys] |  |  | effective in inhibiting CE after simulated gastrointestinal digestion | significant increase in the inhibitory activity; also recorded: significant changes observed (p < 0.05); also recorded: significantly enhanced after simulated gastrointestinal digestion | increased with the increase of peptide mass concentration | significantly higher than those of the control group at all concentrations (p < 0.05) | 
6 | VYPFPGPIPN [VN10] |  |  | effective in inhibiting CE after simulated gastrointestinal digestion | significant increases in inhibition activity (p < 0.05) | increased with the increase of peptide mass concentration | significantly higher than those of the control group at all concentrations (p < 0.05) | 

— paper PMC11431439, “Study on the Inhibitory Effect of Bioactive Peptides Derived from Yak Milk Cheese on Cholesterol Esterase” (Foods, 2024)
